Strand notation (5' to 3'): a small letter for the sugar, then the base; units joined by * are phosphorothioate-linked, units joined directly phosphodiester-linked; [ ] holds rarer units or linkages, { } end groups; capitals alone tell only the bases. e = 2'-O-(2-methoxyethyl) (MOE); k = constrained ethyl (cEt); [5mC] = 5-methylcytosine; d = 2'-deoxy (DNA)
Columns and labels:
human SMAD7 mRNA [1] = assay: Antisense inhibition of human SMAD7 mRNA expression in Hep3B cells by 3-10-3 cEt gapmers, 10,000 nM, electroporation (Example 2); format: cell-based; conditions: approximately 24 hours, primer probe set RTS5062, relative to untreated control cells
In short: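 SMAD7 mRNA was measured by real-time PCR (RTS5062) with RiboGreen total-RNA normalization, about 24 h after 10,000 nM gapmer was delivered by electroporation into Hep3B cells at 20,000 per well. Gapmers were 16-mer 3-10-3 cEt, fully phosphorothioate; values are % inhibition versus untreated controls.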

human SMAD7 mRNA [2] = assay: Dose-dependent inhibition of human SMAD7 mRNA expression in Hep3B cells, comparison with ION 28453 (Example 4); format: cell-based; conditions: electroporation, approximately 16 hours
Experimental: Cells were plated at a density of 20,000 cells per well and transfected using electroporation with 0.25 μM, 0.74 μM, 2.22 μM, 6.67 μM, or 20.00 μM concentrations of antisense oligonucleotide, as specified in the Tables below. After a treatment period of approximately 16 hours, RNA was isolated from the cells and SMAD7 mRNA levels were measured by quantitative real-time PCR. Primer probe set RTS5062 was used to measure human SMAD7 mRNA levels. SMAD7 mRNA levels were adjusted according to total RNA content, as measured by RIBOGREEN®. Results are presented as percent inhibition of SMAD7 mRNa expression, relative to untreated control cells.
The half maximal inhibitory concentration (IC50) of each oligonucleotide is also presented. […] Several newly designed antisense oligonucleotides had greater potency than the previously disclosed lead compound, ION 28453.

human SMAD7 mRNA [3] = assay: Dose-dependent inhibition of human SMAD7 mRNA expression in A431 cells, oligonucleotide added without transfection (Example 5, Study 1); format: cell-based; conditions: approximately 48 hours
Experimental: The newly designed compounds disclosed herein are cEt-modified antisense oligonucleotides. […] The studies described below show a comparison of select cEt-modified gapmers and ION0736697/Mongersen.
A431 cells were plated in collagen I-coated 96-well plates in DMEM with […]. Immediately after plating, 0.08 μM, 0.25 μM, 0.74 μM, 2.22 μM, 6.67 μM, or 20.00 μM concentrations of antisense oligonucleotide were added. The plates were shaken briefly before incubating at 37° C. and 10% CO2. After a treatment period of approximately 48 hours, the cells were washed and lyzed and RNA on 384-well Pall plates with DNase I treatment. SMAD7 mRNA levels were measured by quantitative real-time PCR. Primer probe set RTS5062 was used to measure human SMAD7 mRNA levels. SMAD7 mRNA levels were adjusted according to total RNA content, as measured by RIBOGREEN®. Results are presented as percent inhibition of SMAD7 mRNA expression, relative to untreated control cells.
All Ionis oligonucleotides had greater potency than ION 736697/Mongersen.

murine Smad7 mRNA = assay: Dose-dependent inhibition of murine Smad7 mRNA in bEND cells, electroporation (Example 5, Study 2); format: cell-based, mouse; conditions: electroporation; for % inhibition of SMAD7 mRNA expression: approximately 16 hours
Experimental: Many of the Ionis designed oligonucleotides as well as ION 736697/Mongersen are complementary to mouse Smad7 mRNA. […] After a treatment period of approximately 16 hours, the cells were washed and lyzed and RNA on 384-well Pall plates with DNase I treatment. Smad7 mRNA levels were measured by quantitative real-time PCR. Primer probe set RTS1114 (forward sequence […], designated herein as SEQ ID NO: 8; reverse sequence […], designated herein as SEQ ID NO: 9; probe sequence […], designated herein as SEQ ID NO: 10) was used to measure murine Smad7 mRNA levels. Smad7 mRNA levels were adjusted according to total RNA content, as measured by RIBOGREEN®. Results are presented as percent inhibition of Smad7 mRNA expression, relative to untreated control cells.
Many of the Ionis oligonucleotides had greater potency than ION 736697/Mongersen.

[4] = system: human peripheral blood mononuclear cells (PBMCs); assay: Human PBMC activation assay, cytokine levels (IL-10, IL-6, MCP-1, TNF-α) in supernatant after 24 hours (Example 9); conditions: human PBMC supernatant after 24 hours
human SMAD7 mRNA [5] = assay: Antisense inhibition of human SMAD7 mRNA expression in Hep3B cells by 5-10-5 MOE gapmers, single concentration, electroporation, RT-PCR (Example 1, Study 1 and 2); format: cell-based
In short: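 Readout is percent SMAD7 mRNA inhibition versus untreated cells, measured by qRT-PCR (RTS5062) and corrected for total RNA by RIBOGREEN. Oligonucleotide, 5,000 nM or 15,000 nM, was delivered by electroporation into Hep3B cells at 20,000 per well. RNA was collected about 24 h later.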

human SMAD7 mRNA [6] = assay: Dose-dependent inhibition of human SMAD7 mRNA expression in Hep3B cells (Example 3, Study 1 and 2); format: cell-based; conditions: electroporation; for % inhibition of SMAD7 mRNA expression: approximately 16 hours
In short: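 Hep3B cells, 20,000 per well, electroporated with antisense oligonucleotide at 0.31, 1.25, 5.00 or 20.00 μM (first series) or 0.74, 2.22, 6.67 or 20.00 μM (second series). After ~16 h, SMAD7 mRNA measured by RT-qPCR (RTS5062), normalised to RIBOGREEN total RNA. Percent inhibition vs untreated cells; IC50 derived.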

[7] = Hep3B cells, electroporation with 10,000 nM antisense oligonucleotide
[8] = electroporation, 15,000 nM antisense oligonucleotide (Study 2), 5-10-5 MOE gapmers targeting SEQ ID NO: 1 and 2
[9] = 312.5 nM, Study 1, relative to untreated control cells
[10] = Study 2, electroporation with 15,000 nM antisense oligonucleotide, 5-10-5 MOE gapmers targeting SEQ ID NO: 1 and 2

## 799184 (antisense kA*kA*k[5mC]*d[5mC]*dT*dT*dT*dG*dT*dA*dG*dT*dT*kA*kG*kA) [compound 799184]
Human SMAD7 mRNA [1]; [7]
  % inhibition of SMAD7 mRNA expression: 58%
Human SMAD7 mRNA [1]; SMAD7 mRNA, Hep3B cells, 10,000 nM antisense oligonucleotide, electroporation
  % Inhibition: 48%
Human SMAD7 mRNA [2]; 0.25 μM
  % inhibition of SMAD7 mRNA expression: 0%
Human SMAD7 mRNA [2]; 0.74 μM
  % inhibition of SMAD7 mRNA expression: 10%
Human SMAD7 mRNA [2]; 2.22 μM
  % inhibition of SMAD7 mRNA expression: 18%
Human SMAD7 mRNA [2]; 6.67 μM
  % inhibition of SMAD7 mRNA expression: 51%
Human SMAD7 mRNA [2]; 20.00 μM
  % inhibition of SMAD7 mRNA expression: 78%
Human SMAD7 mRNA [2]; SMAD7 mRNA
  IC50: 6 µM

## 736697 (antisense GTCGCCCCTTCTCCCCGCAGC; chemistry not fully specified) [compound 736697]
Human SMAD7 mRNA [3]; 0.08 μM
  % inhibition of SMAD7 mRNA expression: 14%
Human SMAD7 mRNA [3]; 0.25 μM
  % inhibition of SMAD7 mRNA expression: 20%
Human SMAD7 mRNA [3]; 0.74 μM
  % inhibition of SMAD7 mRNA expression: 24%
Human SMAD7 mRNA [3]; 2.22 μM
  % inhibition of SMAD7 mRNA expression: 13%
Human SMAD7 mRNA [3]; 6.67 μM
  % inhibition of SMAD7 mRNA expression: 34%
Human SMAD7 mRNA [3]; 20.00 μM
  % inhibition of SMAD7 mRNA expression: 37%
Human SMAD7 mRNA [3]; SMAD7 mRNA
  IC50: > 20 µM
Murine Smad7 mRNA; 0.25 μM
  % inhibition of SMAD7 mRNA expression: 1%
Murine Smad7 mRNA; 0.74 μM
  % inhibition of SMAD7 mRNA expression: 1%
Murine Smad7 mRNA; 2.22 μM
  % inhibition of SMAD7 mRNA expression: 0%
Murine Smad7 mRNA; 6.67 μM
  % inhibition of SMAD7 mRNA expression: 0%
Murine Smad7 mRNA; 20.00 μM
  % inhibition of SMAD7 mRNA expression: 0%
Murine Smad7 mRNA
  IC50: > 20 µM
[4]; 0.0128 μM oligonucleotide
  Levels of IL-6: 3.6 pg/mL
  Levels of IL-10: 2.1 pg/mL
  Levels of MCP-1: 297.6 pg/mL
  Levels of TNF-α: 2.8 pg/mL
[4]; 0.064 μM oligonucleotide
  Levels of IL-6: 5.3 pg/mL
  Levels of IL-10: 3.1 pg/mL
  Levels of MCP-1: 385.9 pg/mL
  Levels of TNF-α: 3.5 pg/mL
[4]; 0.32 μM oligonucleotide
  Levels of IL-6: 12.3 pg/mL
  Levels of IL-10: 3.5 pg/mL
  Levels of MCP-1: 681.3 pg/mL
  Levels of TNF-α: 5.5 pg/mL
[4]; 1.6 μM oligonucleotide
  Levels of IL-6: 15.5 pg/mL
  Levels of IL-10: 2.2 pg/mL
  Levels of MCP-1: 693.9 pg/mL
  Levels of TNF-α: 6.8 pg/mL
[4]; 8 μM oligonucleotide
  Levels of IL-6: 57.4 pg/mL
  Levels of IL-10: 4.2 pg/mL
  Levels of MCP-1: 2306.8 pg/mL
  Levels of TNF-α: 13.6 pg/mL
[4]; 40 μM oligonucleotide
  Levels of IL-6: 63.3 pg/mL
  Levels of IL-10: 4.7 pg/mL
  Levels of MCP-1: 2974.9 pg/mL
  Levels of TNF-α: 28.1 pg/mL
[4]; 200 μM oligonucleotide
  Levels of IL-6: 64.8 pg/mL
  Levels of IL-10: 4.0 pg/mL
  Levels of MCP-1: 622.8 pg/mL
  Levels of TNF-α: 43.7 pg/mL

## 771576 (antisense eG*eG*eG*e[5mC]*eA*dG*dG*dA*dG*dA*dG*dA*d[5mC]*dA*d[5mC]*e[5mC]*eG*e[5mC]*eT*eT) [compound 771576]
Human SMAD7 mRNA [5]; electroporation with 15,000 nM antisense oligonucleotide (Study 2), 5-10-5 MOE gapmers targeting SEQ ID NO: 1 and 2
  % Inhibition of SMAD7 mRNA: 64%
Human SMAD7 mRNA [5]; [8]
  % inhibition of SMAD7 mRNA expression: 28%
Human SMAD7 mRNA [1]; [7]
  % Inhibition: 49%
  % inhibition of SMAD7 mRNA expression: 50%
Human SMAD7 mRNA [6]; [9]
  % inhibition of SMAD7 mRNA expression: 9%
Human SMAD7 mRNA [6]; 740 nM, Study 2, relative to untreated control cells
  % inhibition of SMAD7 mRNA expression: 0%
Human SMAD7 mRNA [6]; 1250.0 nM, Study 1
  % inhibition of SMAD7 mRNA expression: 24%
Human SMAD7 mRNA [6]; 2220 nM, Study 2
  % inhibition of SMAD7 mRNA expression: 23%
Human SMAD7 mRNA [6]; 5000.0 nM, Study 1
  % inhibition of SMAD7 mRNA expression: 55%
Human SMAD7 mRNA [6]; 6670.0 nM, Study 2
  % inhibition of SMAD7 mRNA expression: 23%
Human SMAD7 mRNA [6]; 20000.0 nM, Study 1
  % inhibition of SMAD7 mRNA expression: 75%
Human SMAD7 mRNA [6]; 20000.0 nM, Study 2
  % inhibition of SMAD7 mRNA expression: 22%
Human SMAD7 mRNA [6]; Study 1 (312.5-20000 nM)
  IC50: 4 µM
Human SMAD7 mRNA [6]; Study 2 (740-20000 nM)
  IC50: > 20 µM

## 771793 (antisense eA*eA*eG*eT*e[5mC]*d[5mC]*d[5mC]*dT*dA*dA*d[5mC]*dG*dA*d[5mC]*d[5mC]*eA*eG*eG*e[5mC]*e[5mC]) [compound 771793]
Human SMAD7 mRNA [5]; [8]
  % inhibition of SMAD7 mRNA expression: 58%
Human SMAD7 mRNA [6]; [9]
  % inhibition of SMAD7 mRNA expression: 16%
Human SMAD7 mRNA [6]; 1250.0 nM, Study 1
  % inhibition of SMAD7 mRNA expression: 33%
Human SMAD7 mRNA [6]; 5000.0 nM, Study 1
  % inhibition of SMAD7 mRNA expression: 38%
Human SMAD7 mRNA [6]; 20000.0 nM, Study 1
  % inhibition of SMAD7 mRNA expression: 57%
Human SMAD7 mRNA [6]; Study 1 (312.5-20000 nM)
  IC50: 12 µM

## 771444 (eA*eG*e[5mC]*e[5mC]*eT*d[5mC]*dT*dT*dG*dA*d[5mC]*dT*dT*d[5mC]*d[5mC]*eG*eA*eG*eG*eA; antisense) [compound 771444]
Human SMAD7 mRNA [5]; [10]
  % Inhibition: 67%
Human SMAD7 mRNA [5]; electroporation, 5,000 nM, approximately 24 hours, relative to untreated control cells, gapmers targeting SEQ ID NO: 1 and 2
  % inhibition of SMAD7 mRNA expression: 65%
Human SMAD7 mRNA [6]; [9]
  % inhibition of SMAD7 mRNA expression: 0%
Human SMAD7 mRNA [6]; 1250.0 nM, Study 1
  % inhibition of SMAD7 mRNA expression: 0%
Human SMAD7 mRNA [6]; 5000.0 nM, Study 1
  % inhibition of SMAD7 mRNA expression: 9%
Human SMAD7 mRNA [6]; 20000.0 nM, Study 1
  % inhibition of SMAD7 mRNA expression: 29%
Human SMAD7 mRNA [6]; Study 1 (312.5-20000 nM)
  IC50: > 20 µM

## 771574 (antisense e[5mC]*eG*e[5mC]*eT*eT*dG*dG*dG*dA*d[5mC]*dT*dG*d[5mC]*dA*dA*eA*e[5mC]*e[5mC]*eT*e[5mC]) [compound 771574]
Human SMAD7 mRNA [5]; [10]
  % inhibition of SMAD7 mRNA expression: 66%
Human SMAD7 mRNA [6]; [9]
  % inhibition of SMAD7 mRNA expression: 0%
Human SMAD7 mRNA [6]; 1250.0 nM, Study 1
  % inhibition of SMAD7 mRNA expression: 5%
Human SMAD7 mRNA [6]; 5000.0 nM, Study 1
  % inhibition of SMAD7 mRNA expression: 36%
Human SMAD7 mRNA [6]; 20000.0 nM, Study 1
  % inhibition of SMAD7 mRNA expression: 58%
Human SMAD7 mRNA [6]; Study 1 (312.5-20000 nM)
  IC50: 13 µM
